Reference: ChEMBL document CHEMBL1201862, “PubChem BioAssay data set” (2004)
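Briefly, cells in 96-well plates were exposed to five compound concentrations for 48 h, and endpoints were estimated by linear interpolation. Here, GI50 denotes the concentration required for 50% inhibition of growth.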 Activity calls are given as the source filed them. No stated cut-off is given here; in the data, active = GI50 up to about 1.1 µM and inactive = higher.

What was measured:
Experiment in all cases: NCI anticancer screen, dose series, 48 h
A498 = test system: A498
A549 = test system: A549
ACHN = test system: ACHN
CCRF-CEM = test system: CCRF-CEM
COLO 205 = test system: COLO 205
DLD-1 = test system: DLD-1
DMS-114 = test system: DMS-114
DMS-273 = test system: DMS-273
EKVX = test system: EKVX
HCC 2998 = test system: HCC 2998
HCT-116 = test system: HCT-116
HCT-15 = test system: HCT-15
HL-60 = test system: HL-60
HOP-18 = test system: HOP-18
HOP-62 = test system: HOP-62
HOP-92 = test system: HOP-92
HT-29 = test system: HT-29
IGROV-1 = test system: IGROV-1
K562 = test system: K562
KM-20L2 = test system: KM-20L2
KM12 = test system: KM12
LOX IMVI = test system: LOX IMVI
M14 = test system: M14
MOLT-4 = test system: MOLT-4
Malme-3M = test system: Malme-3M
NCI-H226 = test system: NCI-H226
NCI-H23 = test system: NCI-H23
NCI-H460 = test system: NCI-H460
OVCAR-3 = test system: OVCAR-3
OVCAR-4 = test system: OVCAR-4
OVCAR-5 = test system: OVCAR-5
OVCAR-8 = test system: OVCAR-8
RPMI-8226 = test system: RPMI-8226
RXF 393 = test system: RXF 393
SF-268 = test system: SF-268
SF-295 = test system: SF-295
SF-539 = test system: SF-539
SK-MEL-28 = test system: SK-MEL-28
SK-MEL-2 = test system: SK-MEL-2
SK-MEL-5 = test system: SK-MEL-5
SK-OV-3 = test system: SK-OV-3
SN12C = test system: SN12C
SNB-19 = test system: SNB-19
SNB-75 = test system: SNB-75
SW-620 = test system: SW-620
TK-10 = test system: TK-10
U-251 = test system: U-251
UACC-257 = test system: UACC-257
UACC-62 = test system: UACC-62
UO-31 = test system: UO-31
XF498 = test system: XF498
786-0 = test system: 786-0
LXFL 529 = test system: LXFL 529
M19-MEL = test system: M19-MEL
NCI-H522 = test system: NCI-H522
SR = test system: SR

CC(=O)CCC#Cc1ccccc1C(=O)C(C)=[N+]=[N-]
GI50 (A498): 53.6 µM (inactive)
GI50 (A549): 41 µM (inactive)
GI50 (ACHN): 39.5 µM (inactive)
GI50 (CCRF-CEM): 6.08 µM (inactive)
GI50 (COLO 205): 14.9 µM (inactive)
GI50 (DLD-1): 79.8 µM (inactive)
GI50 (DMS-114): 12.9 µM (inactive)
GI50 (DMS-273): 26.4 µM (inactive)
GI50 (EKVX): 81.8 µM (inactive)
GI50 (HCC 2998): > 100 µM (inactive)
GI50 (HCT-116): 13 µM (inactive)
GI50 (HCT-15): 48.8 µM
GI50 (HL-60): 13.2 µM (inactive)
GI50 (HOP-18): 97.1 µM (inactive)
GI50 (HOP-62): 71.3 µM (inactive)
GI50 (HOP-92): 38 µM (inactive)
GI50 (HT-29): 44.8 µM (inactive)
GI50 (IGROV-1): 30 µM (inactive)
GI50 (K562): 20.8 µM (inactive)
GI50 (KM-20L2): 79.1 µM (inactive)
GI50 (KM12): 45 µM (inactive)
GI50 (LOX IMVI): 32.2 µM (inactive)
GI50 (M14): 20.3 µM (inactive)
GI50 (MOLT-4): 19.8 µM (inactive)
GI50 (Malme-3M): 19.6 µM (inactive)
GI50 (NCI-H226): 48.5 µM (inactive)
GI50 (NCI-H23): 36.1 µM (inactive)
GI50 (NCI-H460): 37.4 µM (inactive)
GI50 (OVCAR-3): 28.5 µM (inactive)
GI50 (OVCAR-4): 50.9 µM (inactive)
GI50 (OVCAR-5): > 100 µM (inactive)
GI50 (OVCAR-8): 42.8 µM (inactive)
GI50 (RPMI-8226): 17.4 µM (inactive)
GI50 (RXF 393): 23.6 µM (inactive)
GI50 (SF-268): 18.1 µM (inactive)
GI50 (SF-295): 45 µM (inactive)
GI50 (SF-539): 97.3 µM (inactive)
GI50 (SK-MEL-28): 18.2 µM (inactive)
GI50 (SK-MEL-2): 72.3 µM (inactive)
GI50 (SK-MEL-5): 15.4 µM (inactive)
GI50 (SK-OV-3): 57.7 µM (inactive)
GI50 (SN12C): 49.1 µM (inactive)
GI50 (SNB-19): > 100 µM (inactive)
GI50 (SNB-75): 15.6 µM (inactive)
GI50 (SW-620): 52.7 µM (inactive)
GI50 (TK-10): > 100 µM (inactive)
GI50 (U-251): 36.8 µM (inactive)
GI50 (UACC-257): 53 µM (inactive)
GI50 (UACC-62): 16.1 µM (inactive)
GI50 (UO-31): 44.4 µM (inactive)
GI50 (XF498): 20.5 µM (inactive)

COC1CCC(OS(C)(=O)=O)C(CO)O1 (configuration not stated)
GI50 (786-0): > 100 µM (inactive)
GI50 (A549): > 100 µM (inactive)
GI50 (ACHN): > 100 µM (inactive)
GI50 (CCRF-CEM): > 100 µM (inactive)
GI50 (DLD-1): > 100 µM (inactive)
GI50 (EKVX): > 100 µM (inactive)
GI50 (HCC 2998): > 100 µM (inactive)
GI50 (HCT-116): > 100 µM (inactive)
GI50 (HCT-15): > 100 µM
GI50 (HL-60): > 100 µM (inactive)
GI50 (HOP-62): > 100 µM (inactive)
GI50 (HOP-92): > 100 µM (inactive)
GI50 (HT-29): > 100 µM (inactive)
GI50 (IGROV-1): > 100 µM (inactive)
GI50 (K562): > 100 µM (inactive)
GI50 (KM-20L2): > 100 µM (inactive)
GI50 (KM12): > 100 µM (inactive)
GI50 (LOX IMVI): > 100 µM (inactive)
GI50 (LXFL 529): > 100 µM (inactive)
GI50 (M14): > 100 µM (inactive)
GI50 (M19-MEL): > 100 µM (inactive)
GI50 (MOLT-4): > 100 µM (inactive)
GI50 (Malme-3M): > 100 µM (inactive)
GI50 (NCI-H23): > 100 µM (inactive)
GI50 (NCI-H460): > 100 µM (inactive)
GI50 (NCI-H522): > 100 µM (inactive)
GI50 (OVCAR-3): > 100 µM (inactive)
GI50 (OVCAR-5): > 100 µM (inactive)
GI50 (OVCAR-8): > 100 µM (inactive)
GI50 (RXF 393): > 100 µM (inactive)
GI50 (SF-295): > 100 µM (inactive)
GI50 (SF-539): > 100 µM (inactive)
GI50 (SK-MEL-28): > 100 µM (inactive)
GI50 (SK-MEL-2): > 100 µM (inactive)
GI50 (SK-MEL-5): > 10 µM (inactive)
GI50 (SK-OV-3): > 100 µM (inactive)
GI50 (SN12C): > 100 µM (inactive)
GI50 (SNB-75): > 100 µM (inactive)
GI50 (SR): > 100 µM (inactive)
GI50 (SW-620): > 100 µM (inactive)
GI50 (TK-10): > 100 µM (inactive)
GI50 (U-251): > 100 µM (inactive)
GI50 (UACC-257): > 100 µM (inactive)
GI50 (UACC-62): > 100 µM (inactive)
GI50 (UO-31): > 100 µM (inactive)
GI50 (XF498): > 100 µM (inactive)
